According to ChEMBL document CHEMBL1151883, “Design and synthesis of bisenediyne bissulfones and their reactivity under basic condition” (Bioorg Med Chem Lett, 2009):
Activity calls are given as the source filed them. The rule behind the calls is not given here.

Columns and labels:
Format in all cases: nucleic-acid assay
Conditions in all cases: Escherichia coli
Nucleic Acid [1] = assay: Induction of supercoiled pBR322 DNA cleavage at PH 7.2 after 16 hrs at 37 degC in presence of triethylamine
Nucleic Acid [2] = assay: Induction of supercoiled pBR322 DNA cleavage at PH 7.2 after 8 hrs at 37 degC in presence of triethylamine
Nucleic Acid [3] = assay: Induction of supercoiled pBR322 DNA cleavage at PH 7.2 after 16 hrs at 37 degC in absence of triethylamine
Nucleic Acid [4] = assay: Induction of supercoiled pBR322 DNA cleavage at PH 7.2 after 8 hrs at 37 degC in absence of triethylamine

Row | Activity (Nucleic Acid [1]) [%] | Activity (Nucleic Acid [2]) [%] | Activity (Nucleic Acid [3]) | Activity (Nucleic Acid [4]) | Compound
1 | 45 | 45 |  |  | O=S(=O)(CC#Cc1ccccc1C#Cc1ccccc1C#CCS(=O)(=O)c1ccccc1)c1ccccc1
2 |  |  | Active | Active | O=S(=O)(C=C=Cc1ccccc1C#CC#Cc1ccccc1C#CCS(=O)(=O)c1ccccc1)c1ccccc1
3 | 62 | 47 |  |  | O=S(=O)(CC#Cc1ccccc1C#CC#Cc1ccccc1C#CCS(=O)(=O)c1ccccc1)c1ccccc1
4 |  |  | Active | Active | O=S(=O)(C=C=Cc1ccccc1C#Cc1ccccc1C#CCS(=O)(=O)c1ccccc1)c1ccccc1
